Data from patent publication US7449462B2, “Triazole derivatives which inhibit vasopressin antagonistic activity” (Pfizer, Inc., priority 2004, dated 2008).

Target: T1, human V1A receptor (Homo sapiens, UniProt P37288)
T1 construct: expressed in transfected cells; host or cells: CHO cells (CHO-hV1A line provided by Marc Thibonnier, Case Western Reserve University)
Assay: V1A filter binding assay (screen 1.0), [3H]-AVP binding to CHO-hV1A membranes
Details: [3H]-AVP displacement, membranes of CHO cells stably expressing the human V1A receptor; Cheng-Prusoff
Experimental: 1.0 V1A Filter Binding Assay
Receptor binding assays were performed on cellular membranes prepared from CHO cells stably expressing the human V1A receptor, (CHO-hV1A). The CHO-hV1A cell line was kindly provided under a licensing agreement by Marc Thibonnier, Dept. of Medicine, Case Western Reserve University School of Medicine, Cleveland, Ohio. CHO-hV1A cells were routinely maintained at 37° C. in humidified atmosphere with 5% CO2 in DMEM/Hams F12 nutrient mix supplemented with 10% fetal bovine serum, 2 mM L-glutamine, 15 mM HEPES and 400 μg/ml G418. […] Confluent CHO-hV1A cells were washed with phosphate-buffered saline (PBS), harvested into ice cold PBS and centrifuged at 1,000 rpm. Cell pellets were stored at −80° C. until use. Cell pellets were thawed on ice and homogenised in membrane preparation buffer consisting of 50 mM Tris-HCl, pH 7.4, 5 mM MgCl2 and supplemented with a protease inhibitor cocktail, (Roche). […] The remaining pellet was homogenised and centrifuged as before. The supernatants were pooled and centrifuged at 25,000×g for 30 min at 4° C. The pellet was resuspended in freezing buffer consisting of 50 mM Tris-HCl, pH 7.4, 5 mM MgCl2 and 20% glycerol and stored in small aliquots at −80° C. until use. Protein concentration was determined using Bradford reagent and BSA as a standard. […]
Compounds were tested for their effects on [^3H]-AVP binding to CHO-hV1A membranes, (^3H-AVP; specific activity 65.5 Ci/mmol; NEN Life Sciences). […] The plates were sealed and counted on a TopCount Microplate Scintillation Counter (Packard Instruments). […] The radioligand binding data was analysed using a four parameter logistic equation with the min forced to 0%. […] Specific binding was calculated by subtracting the mean NSB cpm from the mean Total cpm. […] The inhibitory dissociation constant (Ki) was calculated using the Cheng-Prusoff equation: Ki=IC50/(1+[L]/Kd) where [L] is the concentration of ligand present in the well and Kd is the dissociation constant of the radioligand obtained from Scatchard plot analysis.

T1 sequence (P37288 whole entry): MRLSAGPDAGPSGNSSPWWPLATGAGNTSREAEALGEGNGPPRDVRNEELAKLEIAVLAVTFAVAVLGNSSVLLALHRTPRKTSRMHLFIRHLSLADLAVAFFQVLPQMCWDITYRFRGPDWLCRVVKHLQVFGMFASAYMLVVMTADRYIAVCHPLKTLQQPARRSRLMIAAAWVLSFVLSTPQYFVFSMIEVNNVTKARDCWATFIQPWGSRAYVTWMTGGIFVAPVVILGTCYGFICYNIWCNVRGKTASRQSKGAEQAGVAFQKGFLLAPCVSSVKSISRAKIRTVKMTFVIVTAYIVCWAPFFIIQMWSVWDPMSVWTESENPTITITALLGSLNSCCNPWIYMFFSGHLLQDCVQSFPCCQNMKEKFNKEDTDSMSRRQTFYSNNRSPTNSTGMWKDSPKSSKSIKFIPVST

Ki	Compound
0.86 nM	Cc1cc(Cl)ccc1-n1c(Cn2nccn2)nnc1C1CCN(c2ccccn2)CC1 [Example 15, 4-[4-(4-Chloro-2-methyl-phenyl)-5-[1,2,3]triazol-2-ylmethyl-4H-[1,2,4]triazol-3-yl]-3,4,5,6-tetrahydro-2H-[1,2′]bipyridinyl]
3.32 nM	Cc1cc(Cl)ccc1-n1c(C)nnc1C1CCN(c2ccccn2)CC1 [Example 9, 4-[4-(4-Chloro-2-methyl-phenyl)-5-methyl-4H-[1,2,4]triazol-3-yl]-3,4,5,6-tetrahydro-2H-[1,2′]bipyridinyl]
0.47 nM	Clc1ccc(-n2c(Cn3nccn3)nnc2C2CCN(c3ccccn3)CC2)cc1 [Example 17, 4-[4-(4-Chloro-phenyl)-5-[1,2,3]triazol-2-ylmethyl-4H-[1,2,4]triazol-3-yl]-3,4,5,6-tetrahydro-2H-[1,2′]bipyridinyl]
